Experimental data taken from patent publication US11976083B2, “Inhibitors of peptidylarginine deiminases” (Gilead Sciences, Inc., priority 2020, dated 2024).

Biological target: T1, human PAD4 (Homo sapiens, UniProt Q9UM07)
T1 construct: human PAD4 (NM_012387), A2-P663, was PCR amplified; His-SUMO (N, cleaved yes); made in house; host or cells: E. coli BL21(DE3)
Assay: In vitro PAD4 BAEE biochemical assay
Conditions: BAEE substrate 3 mM, 5 nM PAD4, 2 mM calcium chloride; geometric mean of multiple experiments
Outline: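 Recombinant PAD4 (5 nM final) with 2 mM CaCl2 was preincubated with compound for 30 min at 25 °C in MOPS pH 7.6 buffer with DTT, then reacted with 3 mM BAEE for 2 h at 25 °C. Released ammonia was detected fluorimetrically with o-phthalaldehyde/DTT; IC50 from four-parameter fit, geometric mean of experiments.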

T1 sequence (Q9UM07 2-663): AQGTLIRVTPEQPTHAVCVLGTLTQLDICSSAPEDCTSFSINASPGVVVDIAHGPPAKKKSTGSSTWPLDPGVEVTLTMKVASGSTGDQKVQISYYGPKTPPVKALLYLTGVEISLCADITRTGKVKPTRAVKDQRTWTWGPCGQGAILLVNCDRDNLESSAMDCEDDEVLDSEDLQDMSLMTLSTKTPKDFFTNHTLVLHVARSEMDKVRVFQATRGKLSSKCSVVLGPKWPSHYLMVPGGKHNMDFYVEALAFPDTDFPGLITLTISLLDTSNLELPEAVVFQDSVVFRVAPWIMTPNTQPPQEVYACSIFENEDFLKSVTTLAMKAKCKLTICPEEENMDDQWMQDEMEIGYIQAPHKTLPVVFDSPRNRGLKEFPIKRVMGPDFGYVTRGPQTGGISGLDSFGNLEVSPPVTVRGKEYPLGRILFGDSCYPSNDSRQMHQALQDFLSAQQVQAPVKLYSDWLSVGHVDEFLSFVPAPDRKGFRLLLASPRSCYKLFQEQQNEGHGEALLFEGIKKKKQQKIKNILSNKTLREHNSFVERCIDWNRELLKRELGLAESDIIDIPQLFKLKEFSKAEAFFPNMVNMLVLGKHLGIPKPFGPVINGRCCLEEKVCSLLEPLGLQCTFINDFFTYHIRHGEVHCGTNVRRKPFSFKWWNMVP

Structure (SMILES)	IC50
COc1cc(C(=O)N2CCC[C@@H](N)C2)cc2nc(-c3cc4ccc5nc4n3CCC/C=C/C[C@@](C)(C(F)(F)F)C(=O)N[C@@H]5C)n(C)c12 (single isomer, unassigned) [Example 2, (5˜{E},8˜{R},11˜{R})-17-[5-[(3˜{R})-3-aminopiperidine-1-carbonyl]-7-methoxy-1-methyl-benzimidazol-2-yl]-8,11-dimethyl-8-(trifluoromethyl)-1,10,19-triazatricyclo[10.5.2.0^{15,18}]nonadeca-5,12(19),13,15(18),16-pentaen-9-one]	75 nM
C[C@H]1NC(=O)C(C)(C)CCCCCCn2c(-c3nc4cc(C(=O)N5C[C@H](N)C[C@@H](F)C5)c(F)cc4n3C3CC3)cc3ccc1nc32 [Example 194, (11~{R})-17-[5-[(3~{R},5~{R})-3-amino-5-fluoro-piperidine-1-carbonyl]-1-cyclopropyl-6-fluoro-benzimidazol-2-yl]-8,8,11-trimethyl-1,10,19-triazatricyclo[10.5.2.0^{15,18}]nonadeca-12(19),13,15(18),16-tetraen-9-one]	150 nM
C[C@H]1NC(=O)c2ccc(C(F)(F)F)nc2CCCCCn2c(-c3nc4cc(C(=O)N5C[C@H](N)[C@@H]6CC[C@H]5C6)cc(F)c4n3C3CC3)cc3ccc1nc32 [Example 474, (2~{R})-17-[5-[(1~{S},4~{R},5~{R})-4-amino-2-azabicyclo[3.2.1]octane-2-carbonyl]-1-cyclopropyl-7-fluoro-benzimidazol-2-yl]-2-methyl-8-(trifluoromethyl)-3,9,16,22-tetrazatetracyclo[14.5.2.0^{5,10}.0^{19,23}] tricosa-1(22),5(10),6,8,17,19(23),20-heptaen-4-one]	49 nM
COc1cc(C(=O)N2[C@H]3CC[C@@H]2[C@H](N)C3)cc2nc(-c3cc4ccc5nc4n3CCCCCCCC(=O)Nc3ncccc3-5)n(C)c12 [Example 89, 18-[5-[(1~{R},2~{R},4~{S})-2-amino-7-azabicyclo[2.2.1]heptane-7-carbonyl]-7-methoxy-1-methyl-benzimidazol-2-yl]-6,8,17,23-tetrazatetracyclo[15.5.2.0^{2,7}.0^{20,24}] tetracosa-1(23),2,4,6,18,20(24),21-heptaen-9-one]	113 nM
COc1cc(C(=O)N[C@H]2CNCCC2(F)F)cc2nc(-c3cc4ccc5nc4n3CCC/C=C/c3ccccc3C(=O)N[C@@H]5C)n(C)c12 [Example 495, ~{N}-[(3~{S})-4,4-difluoro-3-piperidyl]-7-methoxy-1-methyl-2-[(2~{R},11~{E})-2-methyl-4-oxo-3,16,22-triazatetracyclo[14.5.2.0^ {5,10}.0^{19,23}]tricosa-1(22),5(10),6,8,11, 17,19(23),20-octaen-17-yl] benzimidazole-5-carboxamide]	518 nM
COc1cc(C(=O)N2C[C@H](N)CCN2C)cc2nc(-c3cc4ccc5nc4n3CCCCCCC(C)(C)C(=O)N[C@@H]5C)n(C)c12 [Example 299, (11~{R})-17-[5-[(5~{R})-5-amino-2-methyl-hexahydropyridazine-1-carbonyl]-7-methoxy-1-methyl-benzimidazol-2-yl]-8,8,11-trimethyl-1,10,19-triazatricyclo[10.5.2.0^{15,18}]nonadeca-12(19),13,15(18),16-tetraen-9-one]	58 nM
COc1cc(C(=O)N2[C@H]3CC[C@@H]2[C@H](N)C3)cc2nc(-c3cc4ccc5nc4n3CCCCCCNC(=O)CC5C)n(C)c12 (stereo partly shown) [Example 227, 17-[5-[(1˜{R},2˜{R},4˜{S})-2-amino-7-azabicyclo[2.2.1]heptane-7-carbonyl]-7-methoxy-1-methyl-benzimidazol-2-yl]-11-methyl-1,8,19-triazatricyclo[10.5.2.0^{15,18}]nonadeca-12(19),13,15(18),16-tetraen-9-one]	154 nM
C[C@H]1NC(=O)[C@@H]2[C@@H](CCCCCn3c(-c4nc5cc(C(=O)N[C@H]6CNCC[C@@H]6F)c(F)cc5n4C)cc4ccc1nc43)C2(F)F (single isomer, unassigned) [Example 382, 2-[(2˜{R},5˜{S},7˜{R})-6,6-difluoro-2-methyl-4-oxo-3,13,19-triazatetracyclo[11.5.2.0^{5,7}.0^{16,20}]icosa-1(19),14,16(20),17-tetraen-14-yl]-6-fluoro-˜{N}-[(3˜{S},4˜{S})-4-fluoro-3-piperidyl]-1-methyl-benzimidazole-5-carboxamide]	108 nM

Compounds with a lower IC50, results first:

IC50	Structure (SMILES)
43 nM	COc1cc(C(=O)N2[C@H]3CC[C@@H]2[C@H](N)C3)cc2nc(-c3cc4ccc5cc4n3CCCOC[C@H]3C[C@H]3C(=O)N[C@@H]5C)n(C)c12 [Example 342, (2~{R},5~{R},7~{S})-14-[5-[(1~{R},2~{R},4~{S})-2-amino-7-azabicyclo[2.2.1]heptane-7-carbonyl]-7-methoxy-1-methyl-benzimidazol-2-yl]-2-methyl-9-oxa-3,13-diazatetracyclo[11.5.2.0^{5,7}.0^{16,20}] icosa-1(19),14,16(20),17-tetraen-4-one]
37 nM	COc1cc(C(=O)N2C[C@H](N)[C@@H]3CC[C@H]2C3)cc2nc(-c3cc4ccc5nc4n3CCCCCCC(C)(C)C(=O)N[C@@H]5C)n(C)c12 [Example 441, (11~{R})-17-[5-[(1~{S),4~{R},5~{R})-4-amino-2-azabicyclo[3.2.1]octane-2-carbonyl]-7-methoxy-1-methyl-benzimidazol-2-yl]-8,8,11-trimethyl-1,10,19-triazatricyclo[10.5.2.0^{15,18}]nonadeca-12(19),13,15(18),16-tetraen-9-one]
26 nM	C[C@H]1NC(=O)c2c(Cl)cncc2CCCCCn2c(-c3nc4cc(C(=O)N[C@H]5CNCC[C@@H]5F)c(F)cc4n3C3CC3)cc3ccc1nc32 [Example 354, 2-[(2~{R})-6-chloro-2-methyl-4-oxo-3,8,16,22-tetrazatetracyclo[14.5.2.0^{5,10}.0^{19,23}]tricosa-1(22),5,7,9,17,19(23),20-heptaen-17-yl]-1-cyclopropyl-6-fluoro- ~{N}-[(3~{S},4~{S})-4-fluoro-3-piperidyl]benzimidazole-5-carboxamide]
11 nM	COc1cc(C(=O)N2CCC[C@@H](N)[C@H]2C)cc2nc(-c3cc4ccc5nc4n3CC(F)(F)CCC[C@]3(F)C[C@H]3C(=O)N[C@@H]5C)n(C)c12 [Example 703, (2~{R},5~{S},7~{S})-14-[5-[(2~{R},3~{R})-3-amino-2-methyl-piperidine-1-carbonyl]-7-methoxy-1-methyl-benzimidazol-2-yl]-7,11,11-trifluoro-2-methyl-3,13,19-triazatetracyclo[11.5.2.0^ {5,7}.0^{16,20}]icosa-1(19), 14,16(20),17-tetraen-4-one]
6 nM	COc1cc(C(=O)N2C[C@H](N)[C@@H]3CC[C@H]2C3)cc2nc(-c3cc4ccc5nc4n3C[C@H]3C[C@H]3CC[C@]3(F)C[C@H]3C(=O)N[C@@H]5C)n(C3CC3)c12 [Example 772, (3~{S},5~{R},8~{S},10~ {S},13~{R})-19-[5-[(1~{S},4~ {R},5~{R})-4-amino-2-azabicyclo[3.2.1]octane-2-carbonyl]-1-cyclopropyl-7-methoxy-benzimidazol-2-yl]-8-fluoro-13-methyl-1,12,21-triazapentacyclo[12.5.2.0^ {3,5).0^{8,10}.0^{17,20}] henicosa-14(21), 15,17(20),18-tetraen-11-one]
